Where a name gives a salt, the structure may show the parent alone.
First: Brc1ccc(-c2nnnn2Cc2ccccc2)s1 (as salt: hydrochloride) [Example 51, 1-benzyl-5-(5-bromothien-2-yl)-1H-tetraazole]
Second: Clc1ccc(-c2nnnn2Cc2ccccc2)s1 (as salt: hydrochloride) [Example 50, 1-benzyl-5-(5-chlorothien-2-yl)-1H-tetraazole]
The melting point of the first is higher: 196 to 197 °C for the first, 176 to 177 °C for the second.

First: Cc1ncccc1Cn1nnnc1-c1cccc(Cl)c1Cl.Cl
Second: Cc1ncccc1Cn1nnnc1-c1cc(Cl)ccc1Cl [Example 44, 3-{[5-(2,5-dichlorophenyl)-1H-tetraazol-1-yl]methyl}-2-methylpyridine]
The melting point of the first is lower: 104 to 105 °C for the first, 172 to 174 °C for the second.

Compared with `Cc1ccnc(C)c1Cn1nnnc1-c1cccc(Cl)c1Cl` (as salt: hydrochloride) [Example 30, 3-{[5-(2,3-dichlorophenyl)-1H-tetraazol-1-yl]methyl}-2,4-dimethylpyridine], `Cc1noc(C)c1Cn1nnnc1-c1cccc(Cl)c1Cl` (as salt: hydrochloride) [Example 38, 5-(2,3-dichlorophenyl)-1-[(3,5-dimethylisoxazol-4-yl)methyl]-1H-tetraazole] is higher in melting point: 146 to 148 °C for the first, 176 to 178 °C for the second.

First: Cc1nc(C)c(Cn2nnnc2-c2cccc(Cl)c2Cl)s1 (as salt: hydrochloride) [Example 36, 5-(2,3-dichlorophenyl)-1-[(2,4-dimethyl-1,3-thiazol-5-yl)methyl]-1H-tetraazole]
Second: Cc1nc(Cn2nnnc2-c2cccc(Cl)c2Cl)cs1 (as salt: hydrochloride) [Example 32, 5-(2,3-dichlorophenyl)-1-[(2-methyl-1,3-thiazol-4-yl)methyl]-1H-tetraazole]
The melting point of the first is higher: 174 to 175 °C for the first, 156 to 158 °C for the second.

First: Cc1ccncc1Cn1nnnc1-c1cccc(Cl)c1Cl (as salt: hydrochloride) [Example 29, 3-{[5-(2,3-dichlorophenyl)-1H-tetraazol-1-yl]methyl}-4-methylpyridine]
Second: Cn1cncc1Cn1nnnc1-c1cccc(Cl)c1Cl (as salt: hydrochloride) [Example 37, 5-(2,3-dichlorophenyl)-1-[(1-methyl-1H-imidazol-5-yl)methyl]-1H-tetraazole]
The melting point of the first is lower: 154 to 156 °C for the first, 166 to 168 °C for the second.

First: CCOC(=O)c1nocc1Cn1nnnc1-c1cccc(Cl)c1Cl (as salt: hydrochloride) [Example 34, ethyl 4-{[5-(2,3-dichlorophenyl)-1H-tetraazol-1-yl]methyl}isoxazole-3-carboxylate]
Second: Cc1[nH]cnc1Cn1nnnc1-c1cccc(Cl)c1Cl (as salt: hydrochloride) [Example 35, 5-(2,3-dichlorophenyl)-1-[(5-methyl-1H-imidazol-4-yl)methyl]-1H-tetraazole]
The melting point of the first is higher: 161 to 163 °C for the first, 151 to 153 °C for the second.

Compared with `Clc1cccc(-c2nnnn2Cc2cscn2)c1Cl` (as salt: hydrochloride) [Example 31, 5-(2,3-dichlorophenyl)-1-(1,3-thiazol-4-ylmethyl)-1H-tetraazole], `Cl.Clc1ccc(Cl)c(-c2nnnn2Cc2cccnc2)c1` is higher in melting point: 153 to 154 °C for the first, 200 to 201 °C for the second.

Source: US20060211739A1, “Use of selective P2X7 receptor antagonists” (priority 2005, published 2006)
